Measured values published in US20100137258A1, “THIOPHOSPHI(O)NIC ACID DERIVATIVES AND THEIR THERAPEUTICAL APPLICATIONS” (priority 2007, published 2010).
Like-named read-outs stand apart in the source and are kept apart here.

What was measured:
mGlu4 = target: T1, mGlu4 (Rattus norvegicus, UniProt P31423); format: cell-based
T1 construct: expressed in transfected cells; host or cells: HEK293 (transient, electroporation)
Source text: (§1) These receptors were transiently expressed in HEK-293 cells as previously described. Since group III mGlu receptors are not naturally coupled to phospholipase-C but rather inhibit adenylyl cyclase, receptors were co-transfected with a chimeric G-protein alpha subunit which is recognized by these receptors but effectively activates the phospholipase-C pathway. Thus, the functional assay consisted in measuring the total inositol phosphate production resulting from receptor activation (ref. 10, 11).
(§2) Cell culture and transfection. Pharmacological experiments were carried out using HEK293 cells. Cells were cultured in Dulbecco's modified Eagle's medium supplemented with 10% foetal calf serum (FCS) and antibiotics (Penicillin and Streptomycin, 100 U/mL final).
(§3) Cells were transiently transfected with rat clones of group-III mGlu receptors (mGlu4, mGlu6, mGlu7 and mGlu8) by electroporation as described elsewhere (ref. 6) and plated in 96-well microplates. The high affinity glutamate transporter EAAC1 was also co-transfected with the receptor in order to avoid any influence of glutamate released by the cells in the assay medium. Since group-III mGluRs activates naturally Gi/o-proteins which modulate the adenylyl-cyclase pathway, these receptors were co-transfected with a chimeric G-protein which is recognized by these receptors but couples to the phospholipase-C pathway, thus leading to inositol phosphate (IP) production following receptor activation (ref. 7). Receptor activity was then determined by measurement of the IP production.
(§4) Functional assay. Inositol phosphate determination experiments in 96-well microplates were performed as already described (ref. 15). Briefly, 6 h following transfection, cell medium was removed and replaced by fresh medium devoid of glutamate, not complemented with FCS, and that contained ^3H-myoinositol. Cells were incubated overnight in this medium. The following day, cells were rinsed and ambient glutamate degraded by incubation in presence of GPT. Cells were stimulated by agonist for 30 min then the medium was removed and cells incubated for 1 h with cold 0.1 M formic acid which induced cell lysis. The ^3H-IP produced following receptor stimulation were recovered by ion exchange chromatography using a Dowex resin (Biorad). […] All points are realized in triplicate.

mGlu8 = target: T2, mGlu8 (Rattus norvegicus, UniProt P70579); format: cell-based
T2 construct: expressed in transfected cells; host or cells: HEK293 (transient, electroporation)
Source text: as §1, §2, §3, §4

mGlu6 = target: T3, mGlu6 (Rattus norvegicus, UniProt P35349); test: Inositol phosphate production in transfected HEK293 cells, mGlu6; format: cell-based
T3 construct: expressed in transfected cells; host or cells: HEK293 (transient, electroporation)
Source text: as §1, §2
(§5) Cells were transiently transfected with rat clones of group-III mGlu receptors (mGlu4, mGlu6, mGlu7 and mGlu8) by electroporation as described elsewhere (ref. 6) and plated in 96-well microplates. The high affinity glutamate transporter EAAC1 was also co-transfected with the receptor in order to avoid any influence of glutamate released by the cells in the assay medium. […] Receptor activity was then determined by measurement of the IP production. […]

mGlu7 = target: T4, mGlu7 (Rattus norvegicus, UniProt P35400); test: Inositol phosphate production in transfected HEK293 cells, mGlu7; format: cell-based
T4 construct: expressed in transfected cells; host or cells: HEK293 (transient, electroporation)
Source text: as §1, §2, §5

group III mGlu receptors [1] = test: Agonist activity across all group III mGlu receptor subtypes (summary); format: cell-based, rat
Source text: as §1, §3
Functional assay. […]

[2] = tested on: group I and II mGlu receptors; test: Selectivity versus group I and II mGlu receptors; format: cell-based
mGlu1/5 receptors = test: Effect at mGlu1/5 receptors; format: cell-based
[3] = 31P NMR chemical shift versus pH, 27° C.
Protocol: In order to compare them, the pKa values of these amino acids were evaluated. […] Indicated pKa3 values were calculated by non-linear regression analysis using GraphPad Prism program. In addition, the ^31P NMR chemical shifts of 1 and 4 are sensitive to the ionization state, thus titration curves may be obtained from their pH dependence (ref. 7-9) (FIG. 1B). […] The pKa1 and pKa2 values are too close to be determined from the titration curves, however pKa3 and pKa4 are easily measured. […]
Each ^31P NMR spectrum was acquired at 27° C. with external H3PO4 (95%) reference at 0 ppm (sealed capillary). […] A total of 27 spectra (1) or 23 spectra (4) were recorded over a pH range of 0.50-12.50 (1) or 0.51-12.56 (4). The P NMR chemical shifts of the dianionic and monoanionic forms of the (thio)phosphonate groups were plotted against measured pH. All pKa values were calculated by non-linear regression analysis using the GraphPad Prism program (GraphPad Software Inc., San Diego Calif.) and the equation pH=pKa−log[(δa−δ)/(δ−δb)] where δ is the ^31P NMR chemical shift at varying pH, δa and δb the ^31P NMR chemical shifts with titrating group in fully acidic or basic form respectively.

mGlu4R = mGlu4R (Homo sapiens, UniProt Q14833); conditions: read-out: EC50 as mGlu4R agonist; background statement; cited from earlier work
mGlu2 receptor = mGlu2 receptor (Homo sapiens, UniProt Q14416); conditions: described in the literature; cited from earlier work
group III mGlu receptors [4] = conditions: cited from earlier work
[5] = agonist activity, IP production, HEK-293, mean ± SEM (n)

T3 sequence (P35349 24-871): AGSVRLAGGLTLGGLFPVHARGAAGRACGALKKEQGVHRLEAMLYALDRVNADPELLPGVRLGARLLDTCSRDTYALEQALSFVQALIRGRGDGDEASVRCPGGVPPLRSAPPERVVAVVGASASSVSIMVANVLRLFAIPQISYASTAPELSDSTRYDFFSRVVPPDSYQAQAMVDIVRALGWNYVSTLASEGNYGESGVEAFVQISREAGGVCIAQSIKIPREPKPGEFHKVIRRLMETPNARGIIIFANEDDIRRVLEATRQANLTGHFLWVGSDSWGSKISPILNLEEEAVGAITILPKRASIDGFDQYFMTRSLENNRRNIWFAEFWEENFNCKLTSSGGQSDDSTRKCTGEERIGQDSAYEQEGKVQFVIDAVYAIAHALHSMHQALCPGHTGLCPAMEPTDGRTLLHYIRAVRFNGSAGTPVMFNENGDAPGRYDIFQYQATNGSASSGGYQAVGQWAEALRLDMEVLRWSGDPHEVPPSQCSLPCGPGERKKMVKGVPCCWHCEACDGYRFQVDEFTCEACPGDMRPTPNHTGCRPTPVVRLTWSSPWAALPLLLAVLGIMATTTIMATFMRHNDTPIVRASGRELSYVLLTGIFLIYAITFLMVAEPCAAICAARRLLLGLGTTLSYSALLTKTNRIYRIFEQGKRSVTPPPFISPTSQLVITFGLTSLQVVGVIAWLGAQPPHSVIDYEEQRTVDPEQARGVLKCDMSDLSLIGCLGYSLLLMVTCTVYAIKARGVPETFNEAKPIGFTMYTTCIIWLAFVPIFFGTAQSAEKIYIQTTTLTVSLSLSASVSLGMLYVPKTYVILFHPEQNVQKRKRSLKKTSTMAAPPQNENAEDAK
T4 sequence (P35400 35-915): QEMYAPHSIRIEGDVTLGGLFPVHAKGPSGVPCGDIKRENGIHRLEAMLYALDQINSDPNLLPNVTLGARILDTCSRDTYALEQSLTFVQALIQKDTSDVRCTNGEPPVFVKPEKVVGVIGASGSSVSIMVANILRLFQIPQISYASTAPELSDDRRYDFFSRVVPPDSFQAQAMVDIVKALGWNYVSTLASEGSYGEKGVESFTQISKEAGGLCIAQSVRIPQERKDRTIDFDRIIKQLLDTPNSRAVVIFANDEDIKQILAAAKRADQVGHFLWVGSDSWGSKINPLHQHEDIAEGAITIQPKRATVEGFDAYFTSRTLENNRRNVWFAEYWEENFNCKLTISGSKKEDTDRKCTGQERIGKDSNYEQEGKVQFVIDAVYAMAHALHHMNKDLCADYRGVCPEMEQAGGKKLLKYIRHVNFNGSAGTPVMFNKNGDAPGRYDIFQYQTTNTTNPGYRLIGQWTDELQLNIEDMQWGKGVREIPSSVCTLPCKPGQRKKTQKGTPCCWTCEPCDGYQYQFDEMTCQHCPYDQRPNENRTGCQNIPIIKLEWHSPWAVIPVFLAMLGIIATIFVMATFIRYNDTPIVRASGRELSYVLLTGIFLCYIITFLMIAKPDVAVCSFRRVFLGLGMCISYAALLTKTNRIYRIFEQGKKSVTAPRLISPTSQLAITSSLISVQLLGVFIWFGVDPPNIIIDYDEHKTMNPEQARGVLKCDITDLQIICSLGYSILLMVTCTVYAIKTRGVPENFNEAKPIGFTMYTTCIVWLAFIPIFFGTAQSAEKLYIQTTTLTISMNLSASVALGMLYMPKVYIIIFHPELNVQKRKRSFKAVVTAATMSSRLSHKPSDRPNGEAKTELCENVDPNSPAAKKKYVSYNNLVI
T1 sequence (P31423 33-912): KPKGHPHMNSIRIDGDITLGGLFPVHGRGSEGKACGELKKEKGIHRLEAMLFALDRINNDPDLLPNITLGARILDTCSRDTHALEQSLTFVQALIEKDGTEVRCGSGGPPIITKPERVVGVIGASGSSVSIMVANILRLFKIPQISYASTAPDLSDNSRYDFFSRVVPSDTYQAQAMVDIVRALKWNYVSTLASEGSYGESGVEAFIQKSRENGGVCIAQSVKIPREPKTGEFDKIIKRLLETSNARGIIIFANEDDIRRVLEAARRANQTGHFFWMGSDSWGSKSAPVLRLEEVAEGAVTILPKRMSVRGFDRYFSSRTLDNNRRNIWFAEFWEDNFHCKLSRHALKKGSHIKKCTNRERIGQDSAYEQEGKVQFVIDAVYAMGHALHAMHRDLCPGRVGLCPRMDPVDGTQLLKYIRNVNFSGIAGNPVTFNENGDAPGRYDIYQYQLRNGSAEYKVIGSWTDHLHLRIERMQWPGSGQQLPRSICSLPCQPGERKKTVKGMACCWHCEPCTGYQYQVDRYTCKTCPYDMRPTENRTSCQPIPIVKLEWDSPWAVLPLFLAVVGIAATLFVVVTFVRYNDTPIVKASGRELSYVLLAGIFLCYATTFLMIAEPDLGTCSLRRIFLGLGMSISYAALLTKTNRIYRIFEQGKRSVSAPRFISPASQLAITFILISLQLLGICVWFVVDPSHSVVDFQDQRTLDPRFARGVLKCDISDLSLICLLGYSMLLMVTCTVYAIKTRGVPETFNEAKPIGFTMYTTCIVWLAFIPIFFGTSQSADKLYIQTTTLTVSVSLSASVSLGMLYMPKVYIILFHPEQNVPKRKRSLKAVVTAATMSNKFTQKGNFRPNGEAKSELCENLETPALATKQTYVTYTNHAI
T2 sequence (P70579 34-908): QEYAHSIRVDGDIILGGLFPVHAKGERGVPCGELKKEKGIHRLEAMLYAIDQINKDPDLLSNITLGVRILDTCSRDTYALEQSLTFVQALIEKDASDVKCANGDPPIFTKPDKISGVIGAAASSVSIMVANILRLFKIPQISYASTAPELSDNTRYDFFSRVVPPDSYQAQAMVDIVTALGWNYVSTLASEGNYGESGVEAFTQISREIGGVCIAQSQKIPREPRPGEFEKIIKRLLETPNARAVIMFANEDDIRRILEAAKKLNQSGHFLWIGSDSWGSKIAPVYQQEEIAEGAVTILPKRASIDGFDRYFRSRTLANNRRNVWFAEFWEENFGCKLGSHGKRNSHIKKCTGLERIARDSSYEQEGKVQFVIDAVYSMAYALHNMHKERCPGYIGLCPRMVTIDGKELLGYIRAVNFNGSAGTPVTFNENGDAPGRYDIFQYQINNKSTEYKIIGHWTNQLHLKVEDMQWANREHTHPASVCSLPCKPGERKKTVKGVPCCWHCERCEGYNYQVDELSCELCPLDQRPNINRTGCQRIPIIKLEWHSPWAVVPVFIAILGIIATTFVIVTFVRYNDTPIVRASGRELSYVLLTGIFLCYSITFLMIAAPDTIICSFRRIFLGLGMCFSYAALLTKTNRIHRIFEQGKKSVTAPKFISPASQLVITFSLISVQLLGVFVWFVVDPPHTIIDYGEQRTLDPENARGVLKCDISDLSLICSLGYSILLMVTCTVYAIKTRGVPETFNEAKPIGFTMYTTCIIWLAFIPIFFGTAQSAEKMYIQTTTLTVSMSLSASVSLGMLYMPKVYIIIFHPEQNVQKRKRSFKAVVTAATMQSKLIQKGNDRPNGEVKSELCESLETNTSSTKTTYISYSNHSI
Chain of mGlu2 receptor (Q14416 19-872): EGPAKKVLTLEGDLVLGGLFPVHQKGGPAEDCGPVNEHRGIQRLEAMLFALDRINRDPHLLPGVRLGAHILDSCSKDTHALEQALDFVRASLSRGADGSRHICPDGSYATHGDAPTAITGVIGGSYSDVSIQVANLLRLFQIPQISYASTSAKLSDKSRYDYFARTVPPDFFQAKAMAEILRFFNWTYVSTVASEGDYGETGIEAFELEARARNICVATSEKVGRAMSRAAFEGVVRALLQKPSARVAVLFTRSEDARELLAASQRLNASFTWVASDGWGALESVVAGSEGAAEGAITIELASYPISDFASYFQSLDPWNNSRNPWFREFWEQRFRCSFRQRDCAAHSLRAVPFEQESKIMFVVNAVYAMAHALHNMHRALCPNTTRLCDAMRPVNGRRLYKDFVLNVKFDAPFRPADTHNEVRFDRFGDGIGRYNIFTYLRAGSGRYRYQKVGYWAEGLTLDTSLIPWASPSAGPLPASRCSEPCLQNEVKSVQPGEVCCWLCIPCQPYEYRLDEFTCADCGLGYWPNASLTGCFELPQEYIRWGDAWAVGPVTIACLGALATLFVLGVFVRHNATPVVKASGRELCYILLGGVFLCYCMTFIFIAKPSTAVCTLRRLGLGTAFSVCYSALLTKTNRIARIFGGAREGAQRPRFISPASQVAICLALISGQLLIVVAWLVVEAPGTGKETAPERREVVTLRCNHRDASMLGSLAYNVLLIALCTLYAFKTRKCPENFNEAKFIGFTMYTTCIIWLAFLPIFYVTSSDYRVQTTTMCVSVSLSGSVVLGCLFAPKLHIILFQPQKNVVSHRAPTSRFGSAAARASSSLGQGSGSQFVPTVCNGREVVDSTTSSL

| SMILES | EC50 (mGlu4) [nM] | EC50 (mGlu8) [nM] | EC50 (mGlu6) [nM] | EC50 (mGlu7) [nM] | selectivity among group III mGlu receptor subtypes (group III mGlu receptors [1]) | activity relative to L-AP4 (1) (group III mGlu receptors [1]; on all subtypes, Student's paired T test P<0.05) | agonist or antagonist activity on group I and II mGlu receptors [2] | effect at mGlu1/5 receptors (mGlu1/5 receptors) | EC50 (mGlu4; [5]) [nM] | EC50 (mGlu8; [5]) [nM] | EC50 (mGlu6; [5]) [nM] | EC50 (mGlu7; [5]) [nM] | agonist or antagonist activity on group I and II mGlu receptors ([2]; at 100 μM) | experimental pKa3 ([3]; second acidity of (thio)phosphonate) | experimental pKa4 ([3]; α-ammonium group) | EC50 (mGlu4R) [nM] | mGlu2 receptor antagonist activity (mGlu2 receptor) | activity compared to glutamate at group III mGlu receptors (group III mGlu receptors [4]) |
| --- | --- | --- | --- | --- | --- | --- | --- | --- | --- | --- | --- | --- | --- | --- | --- | --- | --- | --- |
| N[C@@H](CCP(O)(O)=S)C(=O)O [L-thioAP4, L(+)-2-Amino-4-thiophosphonobutyric acid] | 39 | 54 | 730 | 197000 | not subtype selective | about two fold | no agonist or antagonist activity | no effect | – | – | – | – | – | – | – | – | – | – |
| N[C@@H](CCP(=O)(O)O)C(=O)O [L-AP4, L(+)-2-Amino-4-phosphonobutyric Acid] | – | – | – | – | – | – | – | no effect | 80 ± 17 | 128 ± 19 | 2080 ± 380 | 440000 ± 120000 | no agonist or antagonist activity | 6.88 | 9.90 | 320 | modest mGlu2 receptor antagonist | – |
| N[C@@H](CCS(=O)(=O)O)C(=O)O [L-homocysteic acid] | – | – | – | – | – | – | – | – | – | – | – | – | – | – | – | – | – | no enhanced activity compared to glutamate |
